Data on 29 compounds can be found in patent US20080221100A1, “SOLUBLE EPOXIDE HYDROLASE INHIBITORS” (Arete Therapeutics, Inc., priority 2006, published 2008).

The subject of data set [1] is soluble epoxide hydrolase (sEH). The experiment in a line: Fluorescent assay for mouse and human soluble epoxide hydrolase (CMNPC substrate). Format: biochemical, mouse or human, not specified. An excerpt:
Fluorescent Assay for Mouse and Human Soluble Epoxide Hydrolase Recombinant mouse sEH (MsEH) and human sEH (HsEH) were produced in a baculovirus expression system as previously reported. Grant et al., J. Biol. Chem., 268:17628-17633 (1993); Beetham et al., Arch. Biochem. Biophys., 305:197-201 (1993). The expressed proteins were purified from cell lysate by affinity chromatography. Wixtrom et al., Anal. Biochem., 169:71-80 (1988). Protein concentration was quantified using the Pierce BCA assay using bovine serum albumin as the calibrating standard. […] They contained no detectable esterase or glutathione transferase activity which can interfere with the assay. The assay was also evaluated with similar results in crude cell lysates or homogenate of tissues. The IC50s for each inhibitor were determined according to the following procedure: Substrate: [drawing 155] […] Jones P. D. et al.; Analytical Biochemistry 2005; 343: pp. 66-75) Solutions: Bis/Tris HCl 25 mM pH 7.0 containing 0.1 mg/mL of BSA (buffer […] at 0.25 mM in DMSO. Mother solution of enzyme in buffer A (Mouse sEH at 6 μg/mL and Human sEH at 5 μg/mL). Inhibitor dissolved in DMSO at the appropriate concentration. Protocol: In a black 96 well plate, fill all the wells with 150 μL of buffer A. Add 2 μL of DMSO in well A2 and A3, and then add 2 μL of inhibitor solution in A1 and A4 through A12. Add 150 μL of buffer A in row A, then mix several time and transfer 150 μL to row B. Repeat this operation up to row H. The 150 μL removed from row H is discarded. Add 20 μL of buffer A in column 1 and 2, then add 20 μL of enzyme solution to column 3 to 12. Incubate the plate for 5 minutes in the plate reader at 30° C. During incubation prepare the working solution of substrate by mixing 3.68 mL of buffer A (4×0.920 mL) with 266 μL (2×133 μL) of substrate solution). At t=0, add 30 μL of working substrate solution with multi-channel pipette labeled “Briggs 303” and start the reading ([S]final: 5 μM). Read with ex: 330 nm (20 nm) and em: 465 nm (20 nm) every 30 second for 10 minutes. The velocities are used to analyze and calculate the IC50s.

As for `O=C(Nc1ccccc1)NC1CCN(C(=O)CCCN2CCOCC2)CC1` [ComparativeExample 1, 1-[1-(4-Morpholin-4-yl-butyryl)-piperidin-4-yl]-3-phenyl-urea, reference compound], the % Inhibition (usually how much of the control response was suppressed) in data set [1] (Conc 5000 nM) stood at 96%.
For `CC(=O)N1CCC(NC(=O)Nc2ccccc2)CC1` [ComparativeExample 5, 1-(1-Acetyl-piperidin-4-yl)-3-phenyl-urea, reference compound], the “% Inhibition” value in data set [1] (Conc 5000 nM) is on record as 80%.
Consider `O=C(Nc1ccc(F)c(F)c1)NC1CCN(C(=O)CCCN2CCOCC2)CC1` [Compound 2, 1-(3,4-Difluoro-phenyl)-3-[1-(4-morpholin-4-yl-butyryl)-piperidin-4-yl]-urea], for which the “% Inhibition” value in data set [1] (Conc 500 nM) stood at 70%.
Regarding `CC(C)CC(=O)N1CCC(NC(=O)Nc2ccc(C(F)(F)F)cc2)CC1` [Compound 6, 1-[1-(3-Methyl-butyryl)-piperidin-4-yl]-3-(4-trifluoromethyl-phenyl)-urea], the “% Inhibition” value in data set [1] (Conc 50 nM) was 94%.
As for `O=C(Nc1ccc(F)cc1)NC1CCN(C(=O)c2cccnc2)CC1` [Compound 7, 1-(4-Fluoro-phenyl)-3-[1-(pyridine-3-carbonyl)-piperidin-4-yl]-urea], the “% Inhibition” value in data set [1] (Conc 500 nM) was 89%.
Regarding `O=C(Nc1ccc(C(F)(F)F)cc1)NC1CCN(C(=O)c2cccnc2)CC1` [Compound 8, 1-[1-(Pyridine-3-carbonyl)-piperidin-4-yl]-3-(4-trifluoromethyl-phenyl)-urea], the “% Inhibition” value in data set [1] (Conc 50 nM) is on record as 94%.
With `O=C(Nc1ccc(C(F)(F)F)cc1)NC1CCN(C(=O)c2ccccn2)CC1` [Compound 9, 1-[1-(Pyridine-2-carbonyl)-piperidin-4-yl]-3-(4-trifluoromethyl-phenyl)-urea], the “% Inhibition” value in data set [1] (Conc 50 nM) turned out to be 94%.
For the compound `O=C(Nc1ccc(F)cc1)NC1CCN(C(=O)c2ccc(C(=O)O)cc2)CC1` [Compound 10, 4-{4-[3-(4-Fluoro-phenyl)-ureido]-piperidine-1-carbonyl}-benzoic acid], the “% Inhibition” value in data set [1] (Conc 50 nM) came out at 75%.
With `O=C(Nc1ccc(C(F)(F)F)cc1)NC1CCN(C(=O)c2ccc(C(=O)O)cc2)CC1` [Compound 11, 4-{4-[3-(4-Trifluoromethyl-phenyl)-ureido]-piperidine-1-carbonyl}-benzoic acid], the “% Inhibition” value in data set [1] (Conc 50 nM) worked out at 98%.
With `O=C(Nc1ccc(F)cc1)NC1CCN(S(=O)(=O)c2cccc(C(F)(F)F)c2)CC1` [Compound 12, 1-(4-Fluoro-phenyl)-3-[1-(3-trifluoromethyl-benzenesulfonyl)-piperidin-4-yl]-urea], the “% Inhibition” value in data set [1] (Conc 50 nM) is 90%.
As to `O=C(Nc1ccc(F)cc1)NC1CCN(S(=O)(=O)c2ccccc2)CC1` [Compound 13, 1-(1-Benzenesulfonyl-piperidin-4-yl)-3-(4-fluoro-phenyl)-urea], in data set [1] (Conc 50 nM), the “% Inhibition” value was 79%.
On to `O=C(Nc1ccc(F)cc1)NC1CCN(S(=O)(=O)c2ccc(C(F)(F)F)cc2)CC1` [Compound 14, 1-(4-Fluoro-phenyl)-3-[1-(4-trifluoromethyl-benzenesulfonyl)-piperidin-4-yl]-urea], for which, in data set [1] (Conc 50 nM), the “% Inhibition” value is recorded as 89%.
On to `O=C(Nc1ccc(Cl)cc1)NC1CCN(S(=O)(=O)c2ccc(C(=O)O)cc2)CC1` [Compound 15, 4-{4-[3-(4-Chloro-phenyl)-ureido]-piperidine-1-sulfonyl}-benzoic acid], for which, in data set [1] (Conc 50 nM), the “% Inhibition” value worked out at 75%.
On the same count and under the same terms, the result for `O=C(Nc1ccc(C(F)(F)F)cc1)NC1CCN(S(=O)(=O)c2ccc(C(=O)O)cc2)CC1` [Compound 16, 4-{4-[3-(4-Trifluoromethyl-phenyl)-ureido]-piperidine-1-sulfonyl}-benzoic acid] reads 80%.
For the compound `O=C(Nc1ccc(C(F)(F)F)cc1)NC1CCN(S(=O)(=O)c2ccccc2)CC1` [Compound 17, 1-(1-Benzenesulfonyl-piperidin-4-yl)-3-(4-trifluoromethyl-phenyl)-urea], the “% Inhibition” value in data set [1] (Conc 50 nM) is listed as 90%.
For the compound `O=C(Nc1ccc(C(F)(F)F)cc1)NC1CCN(S(=O)(=O)c2ccc(Cl)cc2)CC1` [Compound 18, 1-[1-(4-Chloro-benzenesulfonyl)-piperidin-4-yl]-3-(4-trifluoromethyl-phenyl)-urea], the “% Inhibition” value in data set [1] (Conc 50 nM) is reported as 90%.
For the compound `O=C(Nc1ccc(C(F)(F)F)cc1)NC1CCN(S(=O)(=O)c2cccc(C(F)(F)F)c2)CC1` [Compound 20, 1-[1-(3-Trifluoromethyl-benzenesulfonyl)-piperidin-4-yl]-3-(4-trifluoromethyl-phenyl)-urea], the “% Inhibition” value in data set [1] (Conc 50 nM) is reported as 96%.
`CS(=O)(=O)N1CCC(NC(=O)Nc2cccc(C(F)(F)F)c2)CC1` [Compound 24, 1-(1-Methanesulfonyl-piperidin-4-yl)-3-(3-trifluoromethyl-phenyl)-urea]: the “% Inhibition” value in data set [1] (Conc 50 nM) is on record as 86%.
In the case of `CC(=O)N1CCC(NC(=O)Nc2cccc(C(F)(F)F)c2)CC1` [Compound 25, 1-(1-Acetyl-piperidin-4-yl)-3-(3-trifluoromethyl-phenyl)-urea], in data set [1] (Conc 50 nM), the “% Inhibition” value is given as 68%.
With `O=C(Nc1cccc(C(F)(F)F)c1)NC1CCN(S(=O)(=O)c2ccccc2)CC1` [Compound 26, 1-(1-Benzenesulfonyl-piperidin-4-yl)-3-(3-trifluoromethyl-phenyl)-urea], the “% Inhibition” value in data set [1] (Conc 50 nM) came to 90%.
Take `O=C(Nc1cccc(C(F)(F)F)c1)NC1CCN(S(=O)(=O)c2ccc(C(F)(F)F)cc2)CC1` [Compound 29, 1-[1-(4-Trifluoromethyl-benzenesulfonyl)-piperidin-4-yl]-3-(3-trifluoromethyl-phenyl)-urea]: in data set [1] (Conc 50 nM), the “% Inhibition” value is 95%.
As for `O=C(Nc1ccc(C(F)(F)F)cc1)NC1CCN(C(=O)Cc2c[nH]cn2)CC1` [Compound 33, 1-[1-(2-1H-Imidazol-4-yl-acetyl)-piperidin-4-yl]-3-(4-trifluoromethyl-phenyl)-urea], the “% Inhibition” value in data set [1] (Conc 50 nM) came to 72%.
Consider `O=C(Nc1ccc(Cl)cc1)NC1CCN(C(=O)Cc2c[nH]cn2)CC1` [Compound 34, 1-(4-Chloro-phenyl)-3-[1-(2-1H-imidazol-4-yl-acetyl)-piperidin-4-yl]-urea], for which the “% Inhibition” value in data set [1] (Conc 500 nM) worked out at 80%.
Consider `Cn1cnc(C(=O)N2CCC(NC(=O)Nc3ccc(C(F)(F)F)cc3)CC2)c1` [Compound 35, 1-[1-(1-Methyl-1H-imidazole-4-carbonyl)-piperidin-4-yl]-3-(4-trifluoromethyl-phenyl)-urea], for which the “% Inhibition” value in data set [1] (Conc 50 nM) is 89%.
In the case of `CC(C)S(=O)(=O)N1CCC(NC(=O)Nc2ccc(C(F)(F)F)cc2)CC1` [Compound 42, 1-(1-(Isopropylsulfonyl)piperidin-4-yl)-3-(4-(trifluoromethyl)phenyl)urea], in data set [1] (Conc 50 nM), the “% Inhibition” value came out at 93%.
For the compound `CC(=O)N1CCC(NC(=O)Nc2ccc(Br)cc2)CC1` [Compound 43, 1-(1-acetylpiperidin-4-yl)-3-(4-bromophenyl)urea], the melting point (in general, the temperature, or range, at which the solid turns liquid) lay in the range of 213 to 216 °C.
Turning to `CC(C)S(=O)(=O)N1CCC(NC(=O)Nc2ccc(Br)cc2)CC1` [Compound 44, 1-(4-bromophenyl)-3-(1-(isopropylsulfonyl)piperidin-4-yl)urea], the melting point fell in the range of 240 to 242 °C.
Consider `CC(C)C(=O)N1CCC(NC(=O)Nc2ccc(C(F)(F)F)cc2)CC1` [Compound 45, 1-(1-isobutyrylpiperidin-4-yl)-3-(4-(trifluoromethyl)phenyl)urea], for which the “% Inhibition” value in data set [1] (Conc 200 nM) is given as 97%.
Same read-out and setting: the figure for `CC(C)(C)CC(=O)N1CCC(NC(=O)Nc2ccc(C(F)(F)F)cc2)CC1` [Compound 48, 1-(1-(3,3-dimethylbutanoyl)piperidin-4-yl)-3-(4-(trifluoromethyl)phenyl)urea] is 100%.
